Test results taken from patent publication US20070244138A1, “Mercaptoimidazoles as Ccr2 Receptor Antagonists” (JANSSEN PHARMACEUTICA N.V., priority 2004, published 2007).

biological target: T1, CCR2B (Homo sapiens, UniProt P41597); test: 125I-MCP-1 radioligand binding assay, membranes from CCR2B-transfected CHO cells; conditions: competition with 0.15 nM 125I-MCP-1, 90 minutes at 25° C.; Cheng-Prusoff
T1 construct: expressed in transfected cells; host or cells: CHO cells (membrane preparation)
T1 sequence (P41597 1-360 isoform P41597-2): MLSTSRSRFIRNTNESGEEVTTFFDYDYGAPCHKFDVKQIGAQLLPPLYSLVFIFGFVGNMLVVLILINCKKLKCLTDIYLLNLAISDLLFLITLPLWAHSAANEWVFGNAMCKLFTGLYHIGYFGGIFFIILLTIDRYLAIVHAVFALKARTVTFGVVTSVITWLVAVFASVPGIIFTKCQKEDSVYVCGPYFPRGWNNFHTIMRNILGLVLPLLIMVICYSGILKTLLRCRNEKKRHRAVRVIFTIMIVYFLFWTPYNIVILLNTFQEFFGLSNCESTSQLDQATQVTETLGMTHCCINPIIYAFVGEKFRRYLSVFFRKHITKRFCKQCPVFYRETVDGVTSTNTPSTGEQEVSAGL
Description: Radioligand Binding Assay.
^125I-MCP binding assays performed in 96-well plates with 40 μg of protein per well. Compounds were dissolved and diluted in DMSO to 100× dilutions. A 10× concentration range of compounds was prepared in binding buffer (10% DSMO). Competition binding assay contained the following components in a total volume of 250 μl of the appropriate compound dilution (final concentration of 1% DMSO), 200 μl membranes from CCR2B-transfected CHO cells dissolved in binding buffer and 25 μl ^125I-MCP-1(Bolton and Hunter labeled, Amersham, specific activity=2000 Ci/mmol, 0.15 nM final). Binding buffer was composed of 25 mM HEPES, 5 mM MgCl2, 1 mM CaCl2, 0.5% protease-free bovine serum albumin, pH 7.4. After 90 minutes incubation at 25° C., membranes were harvested on GF/B filters -presoaked in 0.5% polyethylenimene, followeded by washing with buffer containing 25 mM HEPES, 5 mM MgCl2, 1 mM CaCl2, […], pH 7.4. Filter bound radioactivity was determined by liquid scintillation counting. EC50 values (μM) and Ki values (μM) were calculated. […] EC50 values and Ki values were calculated using non-linear regression in Graphpad Prism. […]

Row | SMILES | Ki [nM]
1 | CCC(c1ccc(Cl)c(Cl)c1)n1c(-c2ccnc(N)n2)c[nH]c1=S (stereo not shown) [Compound 1] | 170

system: not given; test: not given; conditions: not given

Row | SMILES | melting point [°C]
2 | CCCC(c1ccc(F)c(F)c1)n1c(-c2nnc(C)o2)c(COC)[nH]c1=S (stereo not shown) [Compound 10] | 97.8 to 97.9

biological target: T2, CCR2 receptor (Homo sapiens, UniProt P41597); test: Inhibition of MCP-1 induced Ca-flux in human THP-1 cells; type: cell-based; conditions: -log IC50 (molar), inhibition of specific MCP-1 induced Ca2+ flux, 10^-7 M hMCP-1, 20 min pre-incubation, FLIPR
T2 construct: host or cells: THP-1 (human monocytic cell line)
T2 sequence (P41597 1-360 isoform P41597-2): T1 sequence (P41597 1-360 isoform P41597-2)
Description: D. Pharmacological Example Inhibition of MCP-1 Induced Ca-Flux in Human THP-1 Cells
MCP-1 binding to the CCR2 receptor induces a rapid and transient intracellular release of Ca^2+ (secondary messenger) in several cell lines (Charo et al, PNAS 1994). Free Ca^2+ levels can be measured using a Ca^2+ sensitive dye. When the CCR2 receptor is blocked with a CCR2 receptor antagonist, the MCP-1 induced release of Ca^2+ is inhibited.
Human THP-1 cells (monocytic cell line, ATCC TIB-202) were cultured in RPMI 1640 medium supplemented with 10% fetal calf serum (FCS), 1% L-Glutamine, penicillin (50 U/ml) and streptomycin (50 μg/ml) (all GIBCO BRL, Gent). After centrifugation, cells were loaded for 30 minutes with the Ca^2+ sensitive fluorescent dye Fluo-3 AM (Molecular Probes, Leiden, Netherlands) (2 million cells/ml in RPMI medium containing 4 μM Fluo-3 AM, 20 mM HEPES, 0.1% Bovine Serum Albumin (BSA) and 5 mM probenecid). Excess dye was removed by 3-fold washing with buffer (5 mM HEPES, 140 mM NaCl, 1 mM MgCl2, 5 mN KCl, 10 mM glucose, 2.5 mM probenecid, 1.25 mM CaCl2, 0.1% BSA; all further incubations were done in this buffer). Cells were plated at a density of 150 000 cells/well in dark-wall 96-well plates (Costar, Cambridge, Mass.) and sedimented by centrifugation (1 minute). The cells were pre-incubated for 20 minutes with test compound Then, 10^−7 M hMCP-1 (Bachem, Bubendorf, Switserland) was added. Changes in intracellular free Ca^2+ concentration were measured using the Fluorescent Imaging Plate Reader (FLIPR, Molecular Devices, Munchen, Germany). Fluorescence was recorded every second from 10 seconds before the addition of the MCP-1 till 2 minutes after the addition (first minute: 60 records with 1 second intervals, second minute 20 records with 3 second intervals). The maximal fluorescence obtained during this time frame was used for further calculations.
Table 4 reports pIC50 values obtained in the above-described test for compounds of formula (I). pIC50 defines −log IC5o wherein IC50 is the molar concentration of the test compound which inhibits 50% of specific MCP-1 induced Ca^2+ flux.

Row | SMILES | IC50 [nM]
3 | CCC(c1ccc(Cl)c(Cl)c1)n1c(-c2ccnc(N)n2)c[nH]c1=S (stereo not shown) [Compound 1] | 35.5
4 | CCC(c1ccc(Cl)c(Cl)c1)n1c(-c2nc(C)no2)cnc1S (stereo not shown) [Compound 5] | 200
5 | CCC(c1ccc(Cl)c(Cl)c1)n1c(-c2nnc(N)o2)cnc1S (stereo not shown) [Compound 9] | 33.1
6 | CCC(c1ccc(Cl)c(Cl)c1)n1c(-c2cc[nH]n2)c[nH]c1=S (stereo not shown) [Compound 11] | 724
7 | CCC(c1ccc(Cl)c(Cl)c1)n1c(-c2ncn[nH]2)c[nH]c1=S (stereo not shown) [Compound 12] | 398
8 | CCC(c1ccc(Cl)c(Cl)c1)n1c(-c2nnc(C)o2)c[nH]c1=S (stereo not shown) [Compound 14] | 417
9 | CCC(c1ccc(Cl)c(Cl)c1)n1c(-c2ccnc(C)n2)c[nH]c1=S (stereo not shown) [Compound 19] | 832
10 | CCC(c1ccc(Cl)c(Cl)c1)n1c(-c2ccnc(NC)n2)c[nH]c1=S (stereo not shown) [Compound 20] | 41.7
11 | CCC(c1ccc(Cl)c(Cl)c1)n1c(-c2ccnc(NCCO)n2)c[nH]c1=S (stereo not shown) [Compound 21] | 34.7
12 | CCC(c1ccc(Cl)c(Cl)c1)n1c(-c2ccnc(N3CCNCC3)n2)c[nH]c1=S (stereo not shown) [Compound 24] | 631
13 | CCC(c1ccc(C(F)(F)F)c(F)c1)n1c(-c2nc(C)no2)c[nH]c1=S (stereo not shown) [Compound 26] | 219
